The values that follow come from patent publication US10690666B2, “Methods and compositions for modulating TH-GM cell function” (National University of Singapore, priority 2014, dated 2020).

One assay has as its system EAE mice. The assay can be described thus: EAE (MOG35-55/CFA) model. It is filed as in vivo.
For another assay, the target named is T1, STAT3 (Mus musculus, UniProt P42227).
T1 construct: endogenous in cells; host or cells: primary mouse CD4+ T cells (spleen and lymph nodes)
Briefly: IL-6-induced STAT3 activation (Tyr705 phosphorylation) in CD4+ T cells, immunoblotting. The assay is classed as cell-based. Particulars: 50 or 100 μM; IL-6 30 min. The protocol:
(§1) FIGS. […] depict inhibition of STAT5 activation suppresses TH-GM cell differentiation in vitro. CD4^+ T cells were pre-incubated with STAT5 inhibitor (Calbiochem) (FIG. 22A) or JAK3 inhibitor (FIG. 22B) at indicated concentrations or vehicle (−) for 1 h before stimulation with IL-7 for 30 min. Activation (Tyr694 phosphorylation) of STAT5 was determined by immunoblotting. CD4^+ T cells were pre-incubated with STAT5 inhibitor at indicated concentrations or vehicle (−) for 1 h before stimulation with IL-6 for 30 min. Activation (Tyr705 phosphorylation) of STAT3 was determined by immunoblotting (FIG. 22C). In FIG. 22D, CD4^+ T cells were pre-incubated with STAT5 inhibitor at indicated concentrations or vehicle (−) for 1 h before stimulation with IFN-γ for 30 min. Activation (Tyr701 phosphorylation) of STAT1 was determined by immunoblotting. In FIG. 22E, naïve CD4^+ T cells were isolated and activated under neutral condition or TH-GM cell-favoring condition with the addition of different concentrations of STAT5 inhibitor for 3 days. GM-CSF and IFN-γ expression was analyzed by intracellular cytokine staining and flow cytometry.
(§2) The effect of disrupting STAT5 activation by chemical inhibitor was examined to explore possible methods of treating autoimmune neuroinflammation. The phosphorylation on the key tyrosine residue in SH2 domain is crucial for STAT5 activation and function. […]

Assay [1] has as its system naïve CD4+ T cells. The assay can be described thus: In vitro TH17 differentiation. The assay is classed as cell-based, mouse. Particulars: data not shown. Here is the method: (§3) CD4^+ T cells were obtained from spleens and lymph nodes by positive selection and magnetic separation (Miltenyi Biotech), followed by purification of naïve CD4^+ T cell population (CD4^+CD25^−CD62L^hiCD44^lo) sorted with FACS Aria. Naïve CD4^+ T cells were stimulated with plate-bound anti-CD3 (3 μg/ml; BD Pharmingen) and anti-CD28 (1 μg/ml; BD Pharmingen) in presence of different combinations of neutralizing antibodies and cytokines for 3˜4 days: for neutral conditions, no addition of any cytokine or neutralizing antibody; for TH1 conditions, IL-12 (10 ng/ml), and anti-IL-4 (10 μg/ml, BD Pharmingen); for TH17 conditions, hTGF-β (3 ng/ml), IL-6 (20 ng/ml), anti-IFN-γ (10 μg/ml, eBioscience), and anti-IL-4 (10 μg/ml); for an alternative TH17 conditions, IL-6 (20 ng/ml), IL-23 (10 ng/ml), IL-1β (10 ng/ml), anti-IFN-γ (10 μg/ml), and anti-IL-4 (10 μg/ml). […] Cells were acquired on the LSR II (BD Biosciences) and analyzed with FlowJo software (Tree Star).
Stat5 deletion (Cd4-cre; Stat5^f/−) mice was reported to develop peripheral lymphopenia, with a reduction of both CD4^+ and CD8^+ T cells (Yao et al., 2006). […] Furthermore, increased frequencies of IL-17^+ and IFN-γ^+ cells were detected among CD4^+ T cells in spleens of Stat5^−/− mice (FIG. 4C), which further support the idea that the resistance to EAE in Stat5^−/− mice is likely independent of TH1 and TH17 generation. […]

In assay [2] the test system is naïve CD4+ T cells. The assay can be described thus: In vitro TH1 differentiation. Particulars: data not shown. It is filed as cell-based, mouse. Here is the method: as §3, with “μg/ml). For GM-CSF-expressing cell differentiation, naïve CD4^+ T cells were stimulated with plate-bound anti-CD3 (2 μg/ml) and soluble anti-D28 (1 μg/ml) with the addition of IL-7 and/or anti-IFN-γ (10 μg/ml) as indicated. All cytokines were obtained from R&D Systems.” for “μg/ml).”, “Star). […]” for “Star).”

The target of the next assay is T2, STAT1 (Mus musculus, UniProt P42225).
T2 construct: endogenous in cells; host or cells: primary mouse CD4+ T cells (spleen and lymph nodes)
T2 sequence (P42225 1-749): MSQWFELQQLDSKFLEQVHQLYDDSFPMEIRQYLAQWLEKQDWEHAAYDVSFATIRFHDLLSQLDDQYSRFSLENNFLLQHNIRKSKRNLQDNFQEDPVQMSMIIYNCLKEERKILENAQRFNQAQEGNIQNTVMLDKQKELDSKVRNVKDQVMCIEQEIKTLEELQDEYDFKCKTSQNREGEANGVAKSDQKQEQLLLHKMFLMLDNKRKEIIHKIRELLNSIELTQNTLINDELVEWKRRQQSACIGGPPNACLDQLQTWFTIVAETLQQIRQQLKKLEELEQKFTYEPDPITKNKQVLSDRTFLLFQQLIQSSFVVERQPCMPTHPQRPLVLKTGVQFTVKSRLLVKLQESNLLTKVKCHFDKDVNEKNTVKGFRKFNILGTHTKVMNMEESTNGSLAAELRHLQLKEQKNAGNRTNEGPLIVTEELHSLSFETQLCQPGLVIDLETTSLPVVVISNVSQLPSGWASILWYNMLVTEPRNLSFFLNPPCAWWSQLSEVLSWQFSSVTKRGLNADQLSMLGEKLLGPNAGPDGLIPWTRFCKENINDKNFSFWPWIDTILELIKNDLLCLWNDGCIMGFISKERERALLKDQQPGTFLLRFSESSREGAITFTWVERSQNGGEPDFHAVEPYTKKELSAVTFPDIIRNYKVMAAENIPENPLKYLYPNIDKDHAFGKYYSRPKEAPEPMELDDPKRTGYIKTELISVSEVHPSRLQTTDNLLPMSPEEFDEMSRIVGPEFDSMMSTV
The assay can be described thus: IFN-γ-induced STAT1 activation (Tyr701 phosphorylation) in CD4+ T cells, immunoblotting. It is filed as cell-based. The note with it: 50 or 100 μM; IFN-γ 30 min. Here is the method:
as §1, §2

Assay [3] has as its system STAT5. Particulars: Muller et al., 2008; cited from earlier work.
The subject of assay [4] is STAT5. Briefly: IL-7-induced STAT5 activation (Tyr694 phosphorylation) in CD4+ T cells, immunoblotting. The assay is classed as cell-based, mouse. The note with it: pre-incubated 1 h, IL-7 30 min. Here is the method:
as §1, §2

Assay [5] concerns naïve CD4+ T cells. Briefly: In vitro TH-GM (GM-CSF-expressing TH) differentiation from naïve CD4+ T cells. It is filed as cell-based, mouse.
Experimental: Naïve CD4^+ T cells were primed with plate-bound anti-CD3 and soluble anti-CD28 in the presence of a combination of various cytokines and neutralizing antibodies as indicated. GM-CSF, IL-17 and IFN-γ expression was analyzed by intracellular staining (FIG. 13A) or RT-PCR (FIG. 13B)
GM-CSF and IFN-γ expression in naive CD4^+ T cells activated for 72 h with anti-CD3 alone or plus anti-CD28 (FIG. 14A). In FIG. 14B, sorted naïve CD4^+ T cells were stimulated with anti-CD3 and anti-CD28 in the presence of neutralizing antibodies against IL-12 and IFN-γ without or with the addition of IL-6. The frequencies of GM-CSF^+ and IL-17^+ cells were measured by intracellular staining (FIG. 14B). In FIG. 14C, naïve CD4^+ T cells from Stat3^+/+ and Stat3^−/− mice were polarized under conditions as indicated for 72 h. The frequencies of GM-CSF^+ and IL-17^+ cells were analyzed. In FIG. 14D, naïve CD4^+ T cells were activated with anti-CD3 and anti-CD28 in the presence of IL-2 or anti-IL-2. The frequencies of GM-CSF^+, IL-17^+ and IFN-γ^+ cells were analyzed.
Naïve CD4^+ T cells were primed with plate-bound anti-CD3 and soluble anti-CD28 in the presence of various concentration of IL-7 as indicated. GM-CSF and IFN-γ expression was analyzed by intracellular staining (FIG. 15A) or ELISA (FIG. 15B). In FIGS. 15C and 15D, Stat5^+/+ and Stat5^−/− naïve CD4^+ T cells were activated with anti-CD3 and anti-CD28 in the presence IL-7 for 3 days. GM-CSF, IL-17 and IFN-γ expression was analyzed by intracellular cytokine staining (FIG. 15C). GM-CSF secretion was measured by ELISA (FIG. 15D).
Assay [6] deals with naïve CD4+ T cells. Briefly: GM-CSF mRNA expression in naïve CD4+ T cells stimulated with IL-2 or IL-7, RT-PCR. The assay is classed as cell-based, mouse. The note with it: anti-CD3 and anti-CD28 plus cytokine. The protocol:
(§4) FIGS. 17A-17C show flow cytometry of CD25 and CD127 on the surface of naïve CD4^+ T cells or cells activated with anti-CD3 and anti-CD28 at various time points as indicated. […] The RT-PCR data were normalized to β-Actin, and expression in naïve T cells activated for 2 h without cytokine was set to 1.
The primer sequences are available upon request.

Assay [7] concerns STAT5. The assay can be described thus: Cytokine-induced STAT5 activation in CD4+ T cells, immunoblotting. It is filed as cell-based, mouse. The protocol:
(§5) In FIG. 10A, purified CD4^+ T cells were cultured with TGF-β and IL-6 for 3 days, followed by starvation for 6 h. Then cells were treated with various cytokines for 30 min, and pSTAT3 and pSTAT5 was determined by immunoblotting. STAT3 and STAT5 were further detected after stripping. […] The RT-PCR data were normalized to β-Actin. […] The frequencies of GM-CSF^+ and IL-17^+ cells among CD4^+CD44^hi T cells were measured by flow cytometry. *p<0.05.
as §4
As shown in FIGS. 18A and 18B, CD4^+ T cells were activated with anti-CD3 and anti-CD28 for 3 days. […] The pTyr-STAT5 and β-Actin were detected by immunoblotting (FIG. 18A). GM-CSF mRNA expression was measured by RT-PCR (FIG. 18B). The RT-PCR data were normalized to β-Actin, and expression in cells without cytokine stimulation was set to 1. The ChIP assay shown in FIG. 18C was performed with normal IgG or STAT5-specific antibody. The binding of antibodies to Csf2 promoter region was detected by RT-PCR.
(§6) Next, the mechanism by which STAT5 regulates GM-CSF expression was investigated. […] Therefore, the effect of these two cytokines on GM-CSF induction in autoreactive T cells was further examined. […] GM-CSF and IL-17 production by CD4^+ T cells were analyzed by intracellular cytokine staining.

In the next assay the test system is CD4+CD44hi T cells. Briefly: MOG35-55 challenge of splenocytes from immunized mice, GM-CSF expression. The assay is classed as cell-based, mouse. The note with it: MOG35-55 (20 μg/ml) plus cytokine, 48 h. The protocol: as §5, §6
Assay [8] concerns CD62LhiCD44lo and CD62LloCD44hi T cells. Briefly: GM-CSF expression in sorted CD62LhiCD44lo and CD62LloCD44hi T cells, RT-PCR. It is filed as cell-based, mouse. The note with it: anti-CD3 and anti-CD28, cytokine 4 h. The protocol: Splenocytes were obtained from MOG35-55/CFA-immunized Stat5^+/+ and Stat5^−/− mice before disease onset and challenged with MOG35-55 (20 μg/ml) in the absence or presence of IL-7 for 48 h. Frequencies of GM-CSF^+ and IL-17^+ cells among CD4^+CD44^hi T cells were measured by flow cytometry (FIG. 11A). GM-CSF secretion was measured by ELISA (FIG. 11B). Data represent two independent experiments with two to three mice per group. Splenic CD62L^hiCD44^lo and CD62L^loCD44^hi T cells from MOG35-55/CFA-immunized mice were sorted out. Cells were stimulated with anti-CD3 and anti-CD28 in the absence or presence of IL-7 for 4 h and then harvested for the analysis of GM-CSF expression by RT-PCR (FIG. 11C). *p<0.05
Total RNA was extracted from cells with RNeasy kit (Qiagen) according to the manufacturer's instruction. Complementary DNA (cDNA) was synthesized with Superscript reverse transcriptase (Invitrogen). Gene expressions were measured by 7500 real-time PCR system (Applied Biosystems) with SYBR qPCR kit (KAPA). Actinb, Gapdh or Rn18S was used as internal control. The primer sequences are available upon request.
Thus, CD62L^hiCD44^lo and CD62L^loCD44^hi T cells were sorted from Stat5^−/− mice and littermate controls during EAE development, and then activated cells in the presence or absence of IL-7.

T1 sequence (P42227 whole entry): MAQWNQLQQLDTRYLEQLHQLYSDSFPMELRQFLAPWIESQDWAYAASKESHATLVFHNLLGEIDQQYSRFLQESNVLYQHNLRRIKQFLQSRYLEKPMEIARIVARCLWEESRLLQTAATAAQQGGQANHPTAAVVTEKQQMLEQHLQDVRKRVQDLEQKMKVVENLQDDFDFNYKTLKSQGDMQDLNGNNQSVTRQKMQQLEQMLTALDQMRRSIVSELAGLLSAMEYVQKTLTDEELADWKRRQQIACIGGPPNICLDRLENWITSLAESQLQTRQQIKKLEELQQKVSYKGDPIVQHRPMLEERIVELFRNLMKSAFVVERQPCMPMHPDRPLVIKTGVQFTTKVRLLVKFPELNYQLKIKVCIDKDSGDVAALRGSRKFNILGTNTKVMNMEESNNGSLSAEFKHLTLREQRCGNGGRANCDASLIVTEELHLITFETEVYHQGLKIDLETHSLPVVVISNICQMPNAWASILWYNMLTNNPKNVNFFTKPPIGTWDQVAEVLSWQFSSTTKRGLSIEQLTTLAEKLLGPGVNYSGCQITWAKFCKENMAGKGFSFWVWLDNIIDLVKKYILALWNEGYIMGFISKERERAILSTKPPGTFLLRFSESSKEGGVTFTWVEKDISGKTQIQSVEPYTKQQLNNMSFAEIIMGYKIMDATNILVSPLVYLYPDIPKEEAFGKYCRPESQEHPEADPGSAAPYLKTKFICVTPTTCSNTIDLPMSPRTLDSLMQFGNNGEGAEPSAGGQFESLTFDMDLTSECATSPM
Experimental for EAE mice: (FIG. 23A) Clinical EAE scores of wild-type control mice (n=5) or administrated with STAT5 inhibitor (Calbiochem). Arrow indicates the treatment points. (FIG. 23B) Histology of spinal cords at day 18 of EAE mice receiving different treatments. (FIG. 23C) Intracellular staining and flow cytometry of CNS-infiltrating CD4^+ T cells at peak of disease. (FIG. 23D) Whole CNS was harvest for RNA extraction. GM-CSF mRNA expression was analyzed by RT-PCR. Data represent two independent experiments. *p<0.05.
EAE induction procedures were modified from previous report^3. For active EAE induction, mice were immunized in two sites on the hind flanks with 300 μg MOG35-55 in 100 μl CFA containing 5 mg/ml heat-killed M. tuberculosis strain H37Ra (Difco) at day 0 and day 7. Pertussis toxin (List Bio Lab) was administrated intraperitoneally at the dosage of 500 ng per mouse at day 1 and day 8. For single MOG35-55/CFA immunization, the similar procedure was performed at day 0 and day 1 only. In an alternative active EAE induction, LPS (600 μg/ml in IFA, O111:B4 from Sigma) was used as adjuvant. […] Clinical symptoms were scored as follows: 0, no clinical sign; 1, loss of tail tone; 2, wobbly gait; 3, hind limb paralysis; 4, hind and fore limb paralysis; 5, death. […] For analysis of CNS-infiltrating cells, both spinal cord and brain were collected and minced from perfused mice, and mononuclear cells were isolated by gradient centrifuge with Percoll (GE Healthcare).
To explore the therapeutic effect of targeting STAT5 activation in EAE disease, the commercial STAT5 inhibitor was administered to wild-type mice intraperitoneally every other day after disease onset. Development of paralysis was assessed by daily assignment of clinical scores.

Take `O=C(N/N=C/c1coc2ccccc2c1=O)c1cccnc1` [STAT5 inhibitor]: in the assay on EAE mice (inhibitor-treated EAE mice, peak of disease), the “GM-CSF production in CNS-infiltrating CD4+ T cells” value is on record as “reduced GM-CSF production”. The “EAE severity (clinical scores)” value in the assay with EAE mice (wild-type mice, intraperitoneally every other day after disease onset) was “ameliorated EAE severity”. In the assay on EAE mice (wild-type mice, intraperitoneally every other day after disease onset, day 18), the “immune cell infiltration in the CNS” value was “reduced immune cell infiltration in the CNS”. For the same molecule, the “inhibitory effect on STAT3 activation” value against STAT3 is “minimal inhibitory effect”. Further, the TH17 differentiation result with naïve CD4+ T cells [1] is listed as “not suppressed”. Also, the TH1 differentiation entry in the assay on naïve CD4+ T cells [2] is “Reduced TH1 differentiation”. For the same molecule, on STAT1, the “inhibitory effect on STAT1 activation” value is given as “minimal inhibitory effect”. For the same molecule, the “disruption of tyrosine phosphorylation and DNA binding of STAT5” value with STAT5 [3] was “selectively disrupt tyrosine phosphorylation and DNA binding of STAT5”. For the same molecule, the “inhibitory effect on STAT5 activation upon IL-7 stimulation” value in the assay on STAT5 [4] (50 μM) was “about 50%”; in the assay on STAT5 [4] (FIG. 22A, 22B), “low affinity and thus required a high concentration to fully block STAT5 activation”. For the same molecule, in the assay on naïve CD4+ T cells [5] (TH-GM cell-favoring condition, inhibitor 3 days), the TH-GM differentiation result is listed as “suppressed TH-GM differentiation in a dosage-dependent manner”.

With “IL-7: cytokine interleukin-7 (R&D Systems)”, in the assay with naïve CD4+ T cells [6], the “GM-CSF mRNA expression in naïve CD4+ T cells” value is on record as “upregulated GM-CSF mRNA expression”. In addition, the TH17 differentiation entry in the assay with naïve CD4+ T cells [1] is listed as “not observed to have a demonstrable effect”. In the assay with STAT5 [7] (CD4+ T cells activated 3 days, rested, then cytokine), the “STAT5 activation, Csf2 promoter binding and GM-CSF mRNA in activated CD4+ T cells” value is “induced STAT5 activation, Csf2 promoter binding and GM-CSF mRNA upregulation”. For the same molecule, the “STAT5 activation (tyrosine phosphorylation)” value in the assay with STAT5 [7] (CD4+ T cells cultured with TGF-β and IL-6 3 days, starved 6 h, cytokine 30 min) is reported as “potently activated STAT5”. For the same molecule, in the assay on STAT5 [7] (naïve CD4+ T cells, cytokine 30 min), the “STAT5 activation in naïve CD4+ T cells” value is listed as “induced STAT5 activation”. Moreover, the “frequency of GM-CSF+ T cells / GM-CSF expression in CD4+CD44hi T cells” value with CD4+CD44hi T cells is “significantly promoted GM-CSF expression”. For the same molecule, the “GM-CSF-expressing cell differentiation from naïve CD4+ T cells” value in the assay on naïve CD4+ T cells [5] (anti-CD3 and anti-CD28 plus cytokine or antibody) is on record as “strongly promoted”. Further, the “GM-CSF expression in CD62LhiCD44lo and CD62LloCD44hi T cells” value in assay [8] is on record as “promoted GM-CSF expression”.
